Reference: patent US8173682B2, “Substituted pyridones as inhibitors of poly(ADP-ribose) polymerase (PARP)” (Aventis Pharmaceuticals Inc., priority 2004, dated 2012)

Molecular target: recombinantly expressed human PARP-1 enzyme (Homo sapiens, UniProt P09874)
Experiment: PARP enzyme assay, Method B (tritium-labeled NAD incorporation)
Type: biochemical
Conditions: not given
Experimental: Method B: PARP Enzyme Assay:
The IC50 is determined in this method by incubating the substances to be tested with the DNA-activated, recombinantly expressed and purified PARP-1 enzyme. Specifically, various concentrations of the test substance are incubated in 50 μL of reaction solution, which contains 50 mM Tris, 5 mM MgCl2, 1 mM DTT, 200 μM NAD, 0.1 m Ci/mL tritium-labeled NAD, 0.1 mg/mL DNA, 0.1 mg/mL histones, 2 μg/mL recombinantly expressed human PARP-1 enzyme, pH=8.0, at room temperature for 1 hour. The reaction is stopped by adding 150 μL of 20% trichloroacetic acid, and the radiolabeled protein constituents are precipitated. After incubation on ice for 10 minutes, the labeled, insoluble constituents are separated off through a glass fiber filter and, after washing with 20% trichloroacetic acid three times, the radioactivity incorporated by the PARP-1 enzyme is measured by radioluminescence. Consideration of the incorporation rates determined in this way as a function of the concentration of the test substance results in IC50 as the concentration of the test substance which reduces the incorporation rate to half the maximum value attainable (incubation without inhibitor).
The IC50 (fifty percent inhibitory concentration of the test substance in a solution—expressed at micromolar (μM) concentration) measured in accordance with these procedures for the compounds of this invention are summarized in Table 1.

Chain of recombinantly expressed human PARP-1 enzyme (P09874 whole entry): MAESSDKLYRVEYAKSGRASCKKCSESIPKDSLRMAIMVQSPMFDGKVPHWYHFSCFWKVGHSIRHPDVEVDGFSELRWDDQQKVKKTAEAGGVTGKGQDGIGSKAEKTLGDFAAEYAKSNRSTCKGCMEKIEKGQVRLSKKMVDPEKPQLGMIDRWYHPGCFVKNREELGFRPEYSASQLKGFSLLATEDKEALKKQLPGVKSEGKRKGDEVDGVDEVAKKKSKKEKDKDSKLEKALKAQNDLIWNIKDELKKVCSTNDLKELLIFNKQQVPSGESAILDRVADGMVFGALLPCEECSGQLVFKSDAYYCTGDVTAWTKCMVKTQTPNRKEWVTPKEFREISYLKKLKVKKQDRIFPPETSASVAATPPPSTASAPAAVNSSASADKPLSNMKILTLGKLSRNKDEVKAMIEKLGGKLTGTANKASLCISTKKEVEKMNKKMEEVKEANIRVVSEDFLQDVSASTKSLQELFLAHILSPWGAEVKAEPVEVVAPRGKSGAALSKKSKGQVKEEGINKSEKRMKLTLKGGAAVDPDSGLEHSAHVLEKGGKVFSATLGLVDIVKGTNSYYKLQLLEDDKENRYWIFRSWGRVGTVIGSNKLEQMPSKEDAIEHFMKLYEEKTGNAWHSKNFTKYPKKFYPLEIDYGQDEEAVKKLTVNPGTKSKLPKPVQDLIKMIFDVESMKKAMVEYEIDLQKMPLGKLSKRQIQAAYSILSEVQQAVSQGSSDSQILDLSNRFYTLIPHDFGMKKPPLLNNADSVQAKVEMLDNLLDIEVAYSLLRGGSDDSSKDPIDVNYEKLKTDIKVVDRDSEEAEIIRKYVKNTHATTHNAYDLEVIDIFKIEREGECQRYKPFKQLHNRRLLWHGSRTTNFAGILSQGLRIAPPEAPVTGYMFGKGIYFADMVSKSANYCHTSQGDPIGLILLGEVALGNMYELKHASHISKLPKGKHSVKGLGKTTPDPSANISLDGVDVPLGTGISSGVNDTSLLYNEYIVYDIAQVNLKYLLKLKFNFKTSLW

| Structure (SMILES) | IC50 [µM] |
| --- | --- |
| CCc1cc(-c2cncc(C(=O)N3CCC(=O)CC3)c2)c(C)[nH]c1=O [Example 234, 5-Ethyl-2-methyl-5′-(4-oxo-piperidine-1-carbonyl)-1H-[3,3′]bipyridinyl-6-one] | 2.46 |

Same assay, conditions: Method B; 200 μM NAD, room temperature 1 hour, pH 8.0; read-out: IC50 (μM)/Method B

| Structure (SMILES) | IC50 [µM] |
| --- | --- |
| CCc1cc(-c2ccc(CNCCc3ccc(Cl)c(S(N)(=O)=O)c3)o2)c(C)[nH]c1=O [Example 182C, 2-Chloro-5-(2-{[5-(5-ethyl-2-methyl-6-oxo-1,6-dihydro-pyridin-3-yl)-furan-2-ylmethyl]-amino}-ethyl)-benzenesulfonamide] | 0.28 |
| CCc1cc(-c2ccc(S(=O)(=O)NCc3ccccc3)s2)c(C)[nH]c1=O [Example 122A, 5-(5-Ethyl-2-methyl-6-oxo-1,6-dihydro-pyridin-3-yl)-thiophene-2-sulfonic acid benzylamide] | 1.22 |
| CCc1cc(-c2ccc(S(=O)(=O)NCc3c[nH]c4ccccc34)s2)c(C)[nH]c1=O [Example 122D, 5-(5-Ethyl-2-methyl-6-oxo-1,6-dihydro-pyridin-3-yl)-thiophene-2-sulfonic acid (1H-indol-3-ylmethyl)-amide] | 0.06 |
| CCc1cc(-c2cccc(CN3CCCC3)n2)c(C)[nH]c1=O [Example 182G, 5′-Ethyl-2′-methyl-6-pyrrolidin-1-ylmethyl-1′H-[2,3′]bipyridinyl-6′-one] | 3.33 |
| CCc1cc(-c2cc(C(=O)NC3CCCC3)ccn2)c(C)[nH]c1=O [Example 216, 5′-Ethyl-2′-methyl-6′-oxo-1′,6′-dihydro-[2,3′]bipyridinyl-4-carboxylic acid cyclopentylamide] | 1.5 |
| CCc1cc(-c2ccc(S(=O)(=O)NCc3ccc(OC)cc3)s2)c(C)[nH]c1=O [Example 122B, 5-(5-Ethyl-2-methyl-6-oxo-1,6-dihydro-pyridin-3-yl)-thiophene-2-sulfonic acid 4-methoxy-benzylamide] | 0.13 |
| CCc1cc(-c2cncc(C(=O)NCCc3ccccn3)c2)c(C)[nH]c1=O [Example 264, 5′-Ethyl-2′-methyl-6′-oxo-1′,6′-dihydro-[3,3′]bipyridinyl-5-carboxylic acid (2-pyridin-2-yl-ethyl)-amide] | 3.14 |
| CCc1cc(-c2cncc(C(=O)NCCc3cccc(OC)c3)c2)c(C)[nH]c1=O [Example 240, 5′-Ethyl-2′-methyl-6′-oxo-1′,6′-dihydro-[3,3′]bipyridinyl-5-carboxylic acid [2-(3-methoxy-phenyl)-ethyl]-amide] | 3.88 |
| CCc1cc(-c2cc(C(=O)NCCc3ccncc3)ccn2)c(C)[nH]c1=O [Example 218, 5′-Ethyl-2′-methyl-6′-oxo-1′,6′-dihydro-[2,3′]bipyridinyl-4-carboxylic acid (2-pyridin-4-yl-ethyl)-amide] | 0.58 |
| CCc1cc(-c2cncc(C(=O)N3CCN(C(=O)C4CC4)CC3)c2)c(C)[nH]c1=O [Example 252, 5′-(4-Cyclopropanecarbonyl-piperazine-1-carbonyl)-5-ethyl-2-methyl-1H-[3,3′]bipyridinyl-6-one] | 6.1 |
| CCc1cc(-c2cncc(C(=O)NCC(=O)c3ccccc3)c2)c(C)[nH]c1=O [Example 244, 5′-Ethyl-2′-methyl-6′-oxo-1′,6′-dihydro-[3,3′]bipyridinyl-5-carboxylic acid (2-oxo-2-phenyl-ethyl)-amide] | 0.32 |
| CCc1cc(-c2ccc(CNC(=O)CN3CCCC3)s2)c(C)[nH]c1=O [Example 276, N-[5-(5-Ethyl-2-methyl-6-oxo-1,6-dihydropyridin-3-yl)-thiophen-2-ylmethyl]-2-pyrrolidin-1-yl-acetamide] | 0.8 |
| CCc1cc(-c2cncc(C(=O)NCCn3c([N+](=O)[O-])cnc3C)c2)c(C)[nH]c1=O [Example 249, 5′-Ethyl-2′-methyl-6′-oxo-1′,6′-dihydro-[3,3′]bipyridinyl-5-carboxylic acid [2-(2-methyl-5-nitro-imidazol-1-yl)-ethyl]-amide] | 5 |
| CCc1cc(-c2cccc(NS(=O)(=O)c3ccc(NC(C)=O)cc3)n2)c(C)[nH]c1=O [Example 278, N-[4-(5′-Ethyl-2′-methyl-6′-oxo-1′,6′-dihydro-[2,3′]bipyridinyl-6-ylsulfamoyl)-phenyl]-acetamide] | 7.9 |
| CCCCNC(=O)c1ccc(-c2cc(CC)c(=O)[nH]c2C)nc1 [Example 209, 5′-Ethyl-2′-methyl-6′-oxo-1′,6′-dihydro-[2,3′]bipyridinyl-5-carboxylic acid butylamide] | 13 |
| CCCCNC(=O)c1cncc(-c2cc(CC)c(=O)[nH]c2C)c1 [Example 223, 5′-Ethyl-2′-methyl-6′-oxo-1′,6′-dihydro-[3,3′]bipyridinyl-5-carboxylic acid butylamide] | 0.92 |
| CCc1cc(-c2cncc(C(=O)NC[C@H](C)O)c2)c(C)[nH]c1=O [Example 229, 5′-Ethyl-2′-methyl-6′-oxo-1′,6′-dihydro-[3,3′]bipyridinyl-5-carboxylic acid (2-hydroxy-propyl)-amide] | 4.7 |

| Structure (SMILES) | IC50 [µM] |
| --- | --- |
| CCc1cc(-c2cncc(C(=O)N[C@H]3CC=CC[C@H]3C(N)=O)c2)c(C)[nH]c1=O [Example 260, 5′-Ethyl-2′-methyl-6′-oxo-1′,6′-dihydro-[3,3′]bipyridinyl-5-carboxylic acid ((1S,6R)-6-carbamoyl-cyclohex-3-enyl)-amide] | 0.8 |
| CCc1cc(-c2cncc(C(=O)Nc3ccccc3CC(N)=O)c2)c(C)[nH]c1=O [Example 251, 5′-Ethyl-2′-methyl-6′-oxo-1′,6′-dihydro-[3,3′]bipyridinyl-5-carboxylic acid (2-carbamoylmethyl-phenyl)-amide] | 0.1 |
| CCc1cc(-c2ccc(CNC(=O)c3cccc(N(C)C)c3)o2)c(C)[nH]c1=O [Example 275, 3-Dimethylamino-N-[5-(5-ethyl-2-methyl-6-oxo-1,6-dihydro-pyridin-3-yl)-furan-2-ylmethyl]-benzamide] | 1.26 |
| CCc1cc(-c2ccc(CNC(=O)c3ccccn3)o2)c(C)[nH]c1=O [Example 273, Pyridine-2-carboxylic acid [5-(5-ethyl-2-methyl-6-oxo-1,6-dihydro-pyridin-3-yl)-furan-2-ylmethyl]-amide] | 1.4 |
| CCc1cc(-c2cncc(C(=O)NCCc3ccncc3)c2)c(C)[nH]c1=O [Example 238, 5′-Ethyl-2′-methyl-6′-oxo-1′,6′-dihydro-[3,3′]bipyridinyl-5-carboxylic acid (2-pyridin-4-yl-ethyl)-amide] | 0.35 |
| CCc1cc(-c2cncc(C(=O)NCC3CC(c4ccncc4)=NO3)c2)c(C)[nH]c1=O (stereo not shown) [Example 257, 5′-Ethyl-2′-methyl-6′-oxo-1′,6′-dihydro-[3,3′]bipyridinyl-5-carboxylic acid (3-pyridin-4-yl-4,5-dihydro-isoxazol-5-ylmethyl)-amide] | 0.57 |
| CCc1cc(-c2cncc(C(=O)NCc3ccccc3)c2)c(C)[nH]c1=O [Example 220, 5′-Ethyl-2′-methyl-6′-oxo-1′,6′-dihydro-[3,3′]bipyridinyl-5-carboxylic acid benzylamide] | 1.27 |
| CCc1cc(-c2cncc(C(=O)N(CC)Cc3ccncc3)c2)c(C)[nH]c1=O [Example 235, 5′-Ethyl-2′-methyl-6′-oxo-1′,6′-dihydro-[3,3′]bipyridinyl-5-carboxylic acid ethyl-pyridin-4-ylmethyl-amide] | 1.86 |
| CCc1cc(-c2cccc(C(=O)N3CCCC3)n2)c(C)[nH]c1=O [Example 207, 5′-Ethyl-2′-methyl-6-(pyrrolidine-1-carbonyl)-1′H-[2,3′]bipyridinyl-6′-one] | 4.72 |
| CCc1cc(-c2ccc(CO)o2)c(C)[nH]c1=O [Example 200A, 3-Ethyl-5-(5-hydroxymethyl-furan-2-yl)-6-methyl-1H-pyridin-2-one] | 1.03 |
| CCc1cc(-c2ccc(C(=O)N3CCN(c4ccccc4)CC3)o2)c(C)[nH]c1=O [Example 201, 3-Ethyl-6-methyl-5-[5-(4-phenyl-piperazine-1-carbonyl)-furan-2-yl]-1H-pyridin-2-one] | 1.35 |
| CCCCNC(=O)c1ccnc(-c2cc(CC)c(=O)[nH]c2C)c1 [Example 215, 5′-Ethyl-2′-methyl-6′-oxo-1′,6′-dihydro-[2,3′]bipyridinyl-4-carboxylic acid butylamide] | 1.25 |
| CCc1cc(-c2ccc(S(=O)(=O)NCc3ccc(S(C)(=O)=O)cc3)s2)c(C)[nH]c1=O [Example 122C, 5-(5-Ethyl-2-methyl-6-oxo-1,6-dihydro-pyridin-3-yl)-thiophene-2-sulfonic acid 4-methanesulfonyl-benzylamide] | 0.86 |
| CCc1cc(-c2cncc(C(=O)NCCc3ccccc3O)c2)c(C)[nH]c1=O [Example 232, 5′-Ethyl-2′-methyl-6′-oxo-1′,6′-dihydro-[3,3′]bipyridinyl-5-carboxylic acid [2-(2-hydroxy-phenyl)-ethyl]-amide] | 0.82 |
| CCc1cc(-c2cncc(C(=O)NCC3CCC(C#N)CC3)c2)c(C)[nH]c1=O (stereo not shown) [Example 262, 5′-Ethyl-2′-methyl-6′-oxo-1′,6′-dihydro-[3,3′]bipyridinyl-5-carboxylic acid (4-cyano-cyclohexylmethyl)-amide] | 2.22 |
| CCc1cc(-c2ccc(C(C)O)o2)c(C)[nH]c1=O (stereo not shown) [Example 268, 3-Ethyl-5-[5-(1-hydroxy-ethyl)-furan-2-yl]-6-methyl-1H-pyridin-2-one] | 1.8 |
